Experimental data taken from patent US11440906B2, “Biguanide derivatives and their rearrangement products for use in the treatment of cancer” (CENTRE NATIONAL DE LA RECHERCHE SCIENTIFIQUE, priority 2017, dated 2022).

Assays:
AMPK = experiment: Western blot assays, A375 Sensitive cells; format: cell-based, human; settings: 5 μM, 6 hr, 12 hr or 24 hr; FIG. 2
Procedure: Western blot analyses were performed as described (Lehraiki et al., 2014). Proteins were extracted in buffer containing 50 mmol/l Tris-HCl (pH 7.5), 15 mmol/1, NaCl, 1% Triton X-100, and 1× protease and phosphatase inhibitors. Briefly, cell lysates […] were separated by SDS-PAGE, transferred onto a polyvinylidene fluoride membrane (Millipore), and then exposed to the appropriate antibodies. Proteins were visualized with the ECL System from Amersham. The western blot analyses shown are representative of at least three independent experiments.
Western Blot analysis: A375 Sensitive cells were treated with 5 μM of CRO15 for different time (6 hr, 12 hr or 24 hr) or with DMSO (Control) for 24 hr.

[1] = test system: A375 resistant melanoma cells; experiment: In vivo murine cancer model, A375 resistant xenograft; design: species or system BALB/c nu/nu (nude) mice; settings: 0.7 mg/mouse/day intraperitoneal
Procedure: Animal experiments were carried out in accordance with the Declaration of Helsinki and were approved by a local ethical committee CIEPAL (Comité Institutionnel d'Ethique Pour l'Animal de Laboratoire-Azur). Female immune-deficient BALB/c nu/nu (nude) mice were obtained at 5 weeks of age from Envigo Laboratory (Gannat, France). Nude mice were inoculated subcutaneously with A375 sensitive or resistant melanoma cells (1.0×10^6 cells/mouse). After tumor apparition (±5 days), animals received intraperitoneal injection of Labrafil (Control), PLX4032 (0.7 mg/mouse/day) or CRO15 (0.7 mg/mouse/day) dissolved in Labrafil. The growth tumor curves were determined by measuring the tumor volume using the equation V=(L*W2)/2 (V=tumor volume, W=tumor width, L=tumor length). At the end of the experiment, mice were euthanized by cervical dislocation and tumors were taken for western blot and immunofluorescence experiments (LC3, Cleaved Caspase 3). TUNEL assay was performed using the In Situ Cell Death Detection Kit (Roche, Meylan, France). The results are shown in FIGS. 3A and 3B (A375 sensitive melanoma cells), and 4B and 4C (A375 resistant melanoma cells).
In Vivo Murine Cancer Model Animal experiments were carried out in accordance with the Declaration of Helsinki and were approved by a local ethical committee CIEPAL (Comite Institutionnel d'Ethique Pour l'Animal de Laboratoire-Azur). Female immune-deficient BALB/c nu/nu (nude) mice were obtained at 5 weeks of age from Envigo Laboratory (Gannat, France). Nude mice were inoculated subcutaneously with A375 resistant melanoma cells (1.0×10^6 cells/mouse). After tumor apparition (+5 days), animals received intraperitoneal injection of Labrafil (Control), PLX4032 (0.7 mg/mouse/day) or MTF319 (0.7 mg/mouse/day) dissolved in Labrafil. The growth tumor curves were determined by measuring the tumor volume using the equation V=(L*W2)/2 (V=tumor volume, W=tumor width, L=tumor length). At the end of the experiment, mice were euthanized by cervical dislocation.

Melanoma cell line DR6 = experiment: Viability test on double resistant cells to BRAF and MEK inhibitors; format: cell-based; settings: 5 μM or 10 μM, 24 hours; FIG. 5
Procedure: For trypan blue staining, […] of cells (melanoma and normal human cells) were aseptically transferred to a 1.5 mL clear Eppendorf tube and incubated for 3 min at room temperature with an equal volume of 0.4% trypan blue solution. Viable cells were counted and the results are expressed as the percentage of the value of control cells. All the experiments are performed 3 times in triplicate.
Melanoma cell line DR6 resistant cells to B-Raf inhibitor (Vemurafenib=PLX4032) and to MEK inhibitor (Cobimetinib) were treated with DMSO (control), with 5 μM or 10 μM of CRO15 or with a combination of 1 μM of vemurafenib and 0.5 μM of cobimetinib. After 24 hours of stimulation, viable cells were counted using the trypan blue dye exclusion method. The results are normalized as percentages compare to the control. Error bars represents ±SEM of triplicate.

normal human cells = experiment: Viability test with CRO15, normal human cells; format: cell-based; settings: 5 μM, 48 hours; FIG. 1E
Procedure: Fresh sterile tissues were obtained from surgical waste from patients diagnosed with metastatic melanoma at the Nice CHU hospital. Epidermal cell suspensions were obtained from foreskins of Caucasian children by overnight digestion in phosphate-buffered saline containing 0.5% dispase grade II at 4° C., followed by a 20 min digestion with 0.05% trypsin-0.02% EDTA in phosphate-buffered saline (V/V) at 37° C. Human primary melanocytes were grown in MCDB153 medium supplemented with 2% FCS, 0.4 μg/ml hydrocortisone, 5 μg/ml insulin, 16 nM phorbol-12 myristate 13-acetate, 1 ng/ml basic fibroblast growth factor, 10 μg/ml bovine pituitary extract and penicillin/streptomycin (100 U/ml/50 μg/ml). […]
For trypan blue staining, […] of cells (melanoma and normal human cells) were aseptically transferred to a 1.5 mL clear Eppendorf tube and incubated for 3 min at room temperature with an equal volume of 0.4% trypan blue solution. Viable cells were counted and the results are expressed as the percentage of the value of control cells. […]
Different melanoma cell lines with various mutations, patient cells with various mutations and normal human cells, were treated with 5 μM of CRO15 for 48 hours or DMSO (Control). At the end of stimulation, viable cells were counted using the trypan blue dye exclusion method. […]

With Nc1nc(Nc2ccccc2SSc2ccccc2Nc2nc(N)nc(C(Cl)(Cl)Cl)n2)nc(C(Cl)(Cl)Cl)n1 [CRO15, N2,N2′-(disulfanediylbis(2,1-phenylene))bis(6-(trichloromethyl)-1,3,5-triazine-2,4-diamine)] the “activation of AMPK (western blot)” value (AMPK) was “induces an activation of AMPK”, the tumor volume ([1]; FIG. 4B, 6A) was “reduces” and the tumor weight ([1]; FIG. 4C, 6B) was “reduces”. The “cell viability of DR6 cells” value (Melanoma cell line DR6) was “induces a decrease of the cell viability” and the “viability of normal cells (toxicity)” value (normal human cells) was “not toxic for normal cells”.
